Results as given in patent US5843399A, “DTPA monoamides for MRI” (Schering Aktiengesellschaft, priority 1990, dated 1998).

How the values were obtained:
[1] = tested on: liver / Brown-Pearce tumor; test: In vivo NMR diagnosis, intravenous, liver with Brown-Pearce tumor; set-up: species or system rat; conditions: i.v., 0.1 mmol of Gd/kg, 60 minutes after administration
Experimental: (§1) A cell suspension of the Brown-Pearce tumor was injected in the liver in a test animal (rat, strain lew/mol, female, 155 g) two weeks before the test. In the method used, about 2 weeks were required until the tumor had reached the size of 0.5-1 cm^3 desired for the test.
(§2) For the test, the animal was anesthetized (Rompun+Ketavet) and then a catheter was placed in the caudal vein for the administration of the contrast medium.
The imaging took place in an MRI experimental device of the General Electric company (field strength 2 teslas). The first image was made without contrast media with a T1 -weighted spin echo sequence (TR=400 msec, TE=20 msec, layer thickness 3 mm). […] 2 was taken 60 minutes after the administration of the contrast medium under conditions which were otherwise the same as image no.

liver = conditions: p.o., 0.5 mmol of Gd/kg
Experimental: In another animal (rat, strain Lew/mol, female, 200 g), the same contrast medium was administered orally with a p.o. sample in a dose of 0.5 mmol of Gd/kg (concentration of the solution 0.033 mmol of Gd/ml, in 0.9% NaCl). The animal was anesthetized 30 minutes after the administration and examined under the same conditions as described in the first case.

stomach = conditions: i.v., 0.1 mmol of Gd/kg, 60 minutes after administration (image no. 2)
Experimental: as §1, §2
The imaging took place in an MRI experimental device of the General Electric company (field strength 2 teslas). The first image was made without contrast media with a T1 -weighted spin echo sequence (TR=400 msec, TE=20 msec, layer thickness 3 mm). […] Then, the administration of the contrast medium [gadolinium complex of 3,6-bis(carboxymethyl)-9-(10-carboxydecylcarbamoylmethyl)-3,6,9-triazaundecanedioic acid, Example 1b)] took place through the vein catheter with a dose of 0.1 mmol of Gd/kg (concentration of the solution of 0.05 mmol/ml in 0.9% NaCl, i.e. a clinically usual dose, e.g., in the case of the commercial preparation Magnevist®). […] 2 was taken 60 minutes after the administration of the contrast medium under conditions which were otherwise the same as image no.

human serum albumin = test: Association with human serum albumin in aqueous solution; type: binding

Row | SMILES | concentration of the contrast medium in liver and tumor [1] | appearance of the liver parenchyma in MRI image ([1]; 2 teslas, T1-weighted spin echo) | appearance of the tumor in MRI image ([1]; Brown-Pearce tumor in liver) | signal in the liver, 45 minutes (liver; 45 minutes after administration (image 3)) | enhancement in the liver, 180 minutes (liver; 180 minutes after administration (image 4)) | enhancement of the stomach (stomach) | association with human serum albumin (human serum albumin)
1 | O=C(O)CCCCCCCCCCNC(=O)CN(CCN(CCN(CC(=O)O)CC(=O)O)CC(=O)O)CC(=O)O.[Gd] [Example 1b, Gadolinium complex of 3,6-bis(carboxymethyl)-9-(10-carboxydecylcarbamoylmethyl)-3,6,9-triazaundecanedioic acid] | concentrated in the liver to a great extent, but, not in the tumor | very bright | considerably darker in comparison with the surrounding liver tissue | a slight increase in the signal in the liver | A marked enhancement in the liver | very strong enhancement of the stomach | 
2 | CCCCCCC(CCCCCCCCCCC(=O)O)NC(=O)CN(CCN(CCN(CC(=O)O)CC(=O)O)CC(=O)O)CC(=O)O.[Gd] (stereo not shown) [Example 4b, Gadolinium complex of 3,6-bis(carboxymethyl)-9-(11-carboxy-1-n-hexyl-undecylcarbamoylmethyl)-3,6,9-triazaundecanedioic acid] |  |  |  |  |  |  | forms associates in aqueous solution with human serum albumin
